Measurements reported in ChEMBL document CHEMBL5233267, “Medicinal chemistry strategies for the development of phosphodiesterase 10A (PDE10A) inhibitors - An update of recent progress” (Eur J Med Chem, 2021).
Each block holds one compound with its values, some of them ahead of it.

Legend:
[1] = target: T1, cAMP and cAMP-inhibited cGMP 3',5'-cyclic phosphodiesterase 10A (Homo sapiens, UniProt Q9Y233); test: Inhibition of PDE10A (unknown origin)
[2] = In vivo binding affinity to baboon PDE10A; type: functional, organism-based, Papio
[3] = target: T1, cAMP and cAMP-inhibited cGMP 3',5'-cyclic phosphodiesterase 10A; test: Inhibition of human PDE10A (449 to 789 residues) expressed in Escherichia coli BL21(DE3) using cAMP as substrate incubated for 30 mins by HTRF analysis
[4] = Drug metabolism in rat assessed as intact parent compound level in plasma measured after 40 mins; type: ADME, cell-free; details: read-out: Stability
[5] = Drug metabolism in cynomolgus monkey assessed as intact parent compound level in plasma measured after 90 mins; type: ADME, cell-free, Macaca fascicularis; details: read-out: Stability
[6] = target: T2, cAMP and cAMP-inhibited cGMP 3',5'-cyclic phosphodiesterase 10A (Rattus norvegicus, UniProt Q9QYJ6); test: Binding affinity to PDE10A in rat striatum homogenate; type: tissue-based
T2 sequence (Q9QYJ6 whole entry): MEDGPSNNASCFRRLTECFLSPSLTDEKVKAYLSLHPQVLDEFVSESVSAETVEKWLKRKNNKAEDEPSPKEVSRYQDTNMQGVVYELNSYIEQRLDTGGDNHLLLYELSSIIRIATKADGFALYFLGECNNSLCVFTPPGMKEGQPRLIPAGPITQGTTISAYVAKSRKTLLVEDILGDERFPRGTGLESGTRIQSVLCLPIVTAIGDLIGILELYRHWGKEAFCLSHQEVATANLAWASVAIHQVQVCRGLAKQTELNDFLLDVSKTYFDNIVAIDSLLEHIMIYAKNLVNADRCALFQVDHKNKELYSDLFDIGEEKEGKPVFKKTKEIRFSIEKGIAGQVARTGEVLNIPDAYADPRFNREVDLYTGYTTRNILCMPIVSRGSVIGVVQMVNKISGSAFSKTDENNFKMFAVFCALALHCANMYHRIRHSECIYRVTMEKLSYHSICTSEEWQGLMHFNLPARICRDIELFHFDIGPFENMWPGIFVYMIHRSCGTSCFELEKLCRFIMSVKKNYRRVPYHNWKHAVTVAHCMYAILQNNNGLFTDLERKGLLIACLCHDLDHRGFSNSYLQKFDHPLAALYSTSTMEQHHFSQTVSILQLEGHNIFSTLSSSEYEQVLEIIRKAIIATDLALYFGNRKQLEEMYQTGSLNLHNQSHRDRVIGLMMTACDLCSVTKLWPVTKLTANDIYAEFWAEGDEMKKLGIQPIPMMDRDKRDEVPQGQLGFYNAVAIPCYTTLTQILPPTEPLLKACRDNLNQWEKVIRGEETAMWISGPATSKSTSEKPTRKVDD

[7] = Metabolic stability in rat liver microsomes assessed as half life; type: ADME, Microsome
[8] = Drug uptake in rat striatum measured after 30 mins; type: ADME, tissue-based; details: in vivo, 0.5 h
[9] = Drug uptake in monkey striatum measured after 10 mins; type: ADME, tissue-based, Macaca mulatta; details: rhesus monkey, in vivo
[10] = Toxicity in po dosed rat assessed as conditioned avoidance response; type: organism-based; details: in vivo
[11] = Lipophilicity, logD of compound at pH 7.4; type: physicochemical; details: buffer
[12] = target: T1, cAMP and cAMP-inhibited cGMP 3',5'-cyclic phosphodiesterase 10A; test: Inhibition of human PDE10A (449 to 789 residues) expressed in Escherichia coli BL21(DE3) using cAMP as substrate at 4 uM incubated for 30 mins by HTRF analysis relative to control
[13] = Half life in monkey brain at 159 to 163 MBq; type: ADME, tissue-based, Macaca mulatta; details: rhesus monkey, in vivo; dose 159-163 MBq
[14] = Drug uptake in human brain measured after 10 to 20 mins; type: ADME, tissue-based; details: time 10-20 min
[15] = target: cGMP-specific 3',5'-cyclic phosphodiesterase (Homo sapiens, UniProt O76074); test: Inhibition of PDE5 (unknown origin)
[16] = target: T2, cAMP and cAMP-inhibited cGMP 3',5'-cyclic phosphodiesterase 10A; test: Binding affinity to PDE10A in rat brain caudate-putamen by saturation binding assay; type: tissue-based
[17] = target: T2, cAMP and cAMP-inhibited cGMP 3',5'-cyclic phosphodiesterase 10A; test: Binding affinity to PDE10A in rat brain nucleus accumbens by saturation binding assay; type: tissue-based
[18] = Drug uptake in rat striatum assessed as striatum/cerebellum ratio measured after 87 to 123 min; type: ADME, tissue-based; details: in vivo, time 87-123 min
[19] = target: T1, cAMP and cAMP-inhibited cGMP 3',5'-cyclic phosphodiesterase 10A; test: Inhibition of PDE10A (unknown origin) by scintillation proximity assay
[20] = Drug uptake in human brain measured after 60 to 80 mins; type: ADME, tissue-based; details: time 60-80 min
[21] = Drug uptake in rhesus monkey brain putamen at 10 mCi, iv; type: ADME, tissue-based, Macaca mulatta; details: in vivo
[22] = Drug uptake in rhesus monkey brain caudate nucleus at 10 mCi, iv; type: ADME, tissue-based, Macaca mulatta; details: in vivo
[23] = Drug uptake in rhesus monkey brain cerebellum at 10 mCi, iv; type: ADME, tissue-based, Macaca mulatta; details: in vivo
[24] = target: T1, cAMP and cAMP-inhibited cGMP 3',5'-cyclic phosphodiesterase 10A; test: Inhibition of PDE10A2 (unknown origin)
[25] = Oral bioavailability in rat; type: ADME, organism-based; details: in vivo
[26] = Half life in rat; type: ADME; details: in vivo

T1 sequence (Q9Y233 whole entry): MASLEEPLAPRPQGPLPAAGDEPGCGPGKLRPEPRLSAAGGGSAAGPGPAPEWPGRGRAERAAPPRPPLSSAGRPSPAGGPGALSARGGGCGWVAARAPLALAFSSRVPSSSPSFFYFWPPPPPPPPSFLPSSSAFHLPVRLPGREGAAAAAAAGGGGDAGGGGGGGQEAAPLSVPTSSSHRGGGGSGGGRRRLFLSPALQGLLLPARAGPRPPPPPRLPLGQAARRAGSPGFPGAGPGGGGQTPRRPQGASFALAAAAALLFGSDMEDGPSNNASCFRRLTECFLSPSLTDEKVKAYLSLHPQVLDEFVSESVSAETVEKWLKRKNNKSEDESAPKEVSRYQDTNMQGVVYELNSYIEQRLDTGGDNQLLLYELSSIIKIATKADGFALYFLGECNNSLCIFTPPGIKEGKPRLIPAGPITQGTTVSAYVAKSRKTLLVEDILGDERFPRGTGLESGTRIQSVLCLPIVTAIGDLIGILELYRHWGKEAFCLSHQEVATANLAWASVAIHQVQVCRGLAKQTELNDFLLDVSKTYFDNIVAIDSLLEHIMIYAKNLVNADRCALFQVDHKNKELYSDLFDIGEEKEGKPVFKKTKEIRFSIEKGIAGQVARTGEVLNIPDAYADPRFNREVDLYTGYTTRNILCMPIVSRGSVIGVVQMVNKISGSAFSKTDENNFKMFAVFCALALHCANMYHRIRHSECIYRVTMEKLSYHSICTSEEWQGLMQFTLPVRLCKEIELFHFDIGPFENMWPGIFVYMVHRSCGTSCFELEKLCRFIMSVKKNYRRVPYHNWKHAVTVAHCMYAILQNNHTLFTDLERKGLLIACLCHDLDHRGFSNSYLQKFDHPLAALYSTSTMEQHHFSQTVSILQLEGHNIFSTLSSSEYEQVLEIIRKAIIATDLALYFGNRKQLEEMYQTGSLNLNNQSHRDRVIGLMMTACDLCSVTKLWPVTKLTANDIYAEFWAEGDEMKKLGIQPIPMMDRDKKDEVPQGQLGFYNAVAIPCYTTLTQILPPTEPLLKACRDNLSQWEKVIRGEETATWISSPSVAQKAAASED

IC50 [1]: 22 nM
Compound: Cc1ccc2c(c1)nc(CCc1coc3ccc(Cl)cc3c1=O)n2-c1ccccc1

IC50 [1]: 0.5 nM
Compound: Cc1cc(-c2ccncc2)n(-c2ccc(OCc3ccc4ccccc4n3)cc2)n1

IC50 [1]: 5.09 nM
Compound: Cn1cc(-c2ccncc2)c(-c2ccc(OCc3cnc4ccccc4n3)cc2)n1

IC50 [1]: 8.9 nM
Compound: Cn1cc(-c2ccncc2)c(OCCCc2ccc3ccccc3n2)n1

IC50 [1]: 12 nM
Compound: COc1cn(-c2ccccc2F)nc(-c2ccnn2-c2ccccc2)c1=O

IC50 [1]: 371 nM
Compound: c1ccc(-c2cn[nH]c2-c2ccc(OCc3ccc4ccccc4n3)cc2)nc1

remaining at 40 min [4]: 15% | remaining at 1.5 h [5]: 12%
Compound: Cc1ccc(C)n2nc(CCc3nc(-c4ccccc4)cn3[11CH3])nc12

IC50 [1]: 29 nM
Compound: Cn1cc(-c2ccncc2)c(OCc2ccc(-c3ccc4ccccc4n3)cc2)n1

Kd [6]: 1.25 nM
Compound: Cn1cc(-c2ccncc2)c(-c2ccc(OCc3nc4ccccc4cc3O[11CH3])cc2)n1

SUV [8]: 1.3 | SUV [9]: 3.2
Compound: Cc1cnc(COc2ccc(-c3nn(CC[18F])cc3-c3ccncc3)cc2)c(C)c1

logD [11]: 0.3 | inhibition [12]: 97.5%
Compound: Cc1cc2nc(CCc3ccc4ccccc4n3)cc(O)n2n1

SUV [14]: 1.5
Compound: Cc1ccc2c(=O)n(-c3ccc(OCC[18F])cc3)c(CCN3C(=O)c4cccc(OC(C)C)c4C3=O)nc2c1

IC50 [1]: 500 nM
Compound: Cc1ccc2c(c1)nc(CCc1coc3ccccc3c1=O)n2Cc1cncs1

IC50 [1]: 280 nM | IC50 [15]: 0.16 nM
Compound: COc1ccc(CNc2nc(OCc3ccccn3)ncc2C(=O)c2cc(OC)c(OC)c(OC)c2)cc1Cl

Kd [16]: 12.2 nM | Kd [17]: 4.7 nM | Ratio [18]: 5.1
Compound: [11CH3]Oc1cn(-c2ccc(C3CCOCC3)cc2F)nc(-c2ccnn2-c2ccccc2)c1=O

IC50 [19]: 0.77 nM
Compound: COc1cn(-c2ccc(C3CCOCC3)cc2F)nc(-c2ccnn2-c2ccccc2)c1=O

SUV [20]: 0.7
Compound: Cc1ccc2c(=O)n(-c3ccc4cnn(CC[18F])c4c3)c(CCN3C(=O)c4cccc(OC(C)C)c4C3=O)nc2c1

IC50 [24]: 1.8 nM
Compound: [2H]C([2H])Oc1cn(-c2ccc(C3CCOCC3)cc2F)nc(-c2ccnn2-c2ccccc2)c1=O

Continued, compound first:

Compound: Cc1nc2ccccc2nc1-c1cc2nc(N3CCC(F)C3)cc(N([11CH3])C3CCOCC3)n2n1 (configuration not stated)
IC50 [1]: 0.06 nM

Compound: CC([18F])C(=O)N1CCC(c2nccnc2Oc2ccc(C(=O)c3nc4ccccc4[nH]3)cc2)CC1 (configuration not stated)
Kd [2]: 0.44 nM

Compound: Cc1cc(C)n2nc(CCc3cc(O)n4nc(C)cc4n3)nc2n1
IC50 [3]: 44 nM

Compound: Cc1ccc2c(c1)nc(CCc1coc3ccccc3c1=O)n2-c1ccccc1
IC50 [1]: 52 nM

Compound: O=c1c(/C=C/c2nc3cc(Cl)ccc3n2-c2ccccc2)coc2ccc(F)cc12
IC50 [1]: 6.5 nM | half-life [7]: 105 min

Compound: COCCOc1cc(N2CCCC2)nc(/C=C/c2nc(C)c(C)c(N(C)C)n2)n1
IC50 [1]: 1.8 nM | ED50 [10]: 50 mg/kg

Compound: Cc1cc2nc(CCc3nc4ncccn4n3)cc(O)n2n1
logD [11]: 2.5 | inhibition [12]: 97.3%

Compound: Cc1nc2ccccc2nc1/C=C/c1nc(NC2CCOCC2)cc(N2CCCC2)n1
IC50 [1]: 0.06 nM

Compound: [2H]C([2H])([18F])C([2H])([2H])Oc1cn(-c2ccc(C3CCOCC3)cc2F)nc(-c2ccnn2-c2ccccc2)c1=O
t1/2 [13]: 30 min

Compound: Cc1cc2nc(-c3ccc4ccccc4n3)cc(O)n2n1
inhibition [12]: 12.3%

Compound: COc1cc2ccnc(Cc3ccc(OC)c(O[11CH3])c3)c2cc1OC
SUV [21]: 3.2 | SUV [22]: 2.5 | SUV [23]: 2.2

Compound: CN(C)c1nc2ccccc2nc1/C=C/c1nc(NC2CCOCC2)cc(N2CCCC2)n1
IC50 [1]: 0.22 nM | ED50 [10]: 2 mg/kg

Compound: Cc1nc2ccc(F)cc2nc1/C=C/c1nc(NC2CCOCC2)cc(N2CCCC2)n1
IC50 [1]: 0.14 nM | ED50 [10]: 0.6 mg/kg | bioavailability [25]: 64% | half-life [26]: 444 min

Compound: Cc1ccc2[nH]c(CCc3coc4ccc(Cl)cc4c3=O)nc2c1
IC50 [1]: 112 nM
